Test results taken from patent US20050244485A1, “Transdermal administration of hydrophilic drugs using a basic permeation enhancer composition” (priority 2003, published 2005).

Legend:
[1] = cited from earlier work; for pH of 0.1 M aqueous sol'n: 0.1M aqueous solution, 25° C.
[2] = In vitro skin permeation of diclofenac sodium transdermal delivery systems, Franz diffusion cells; format: in vitro ADME, human; settings: 24 hours; for cumulative amount of diclofenac that permeated through the skin: 32° C.
Experimental: Each formulation was coated on a release liner and dried in an oven at 65° C. for two hours to remove water and other solvents. The dried drug-in-adhesive/release liner film was laminated to a backing film, and the backing/drug-in-adhesive/release liner laminate was then cut into discs with a diameter of 9/16 inch. The theoretical weight percent weight of each component of the system, after drying (calculated assuming all volatile ingredients were completely removed during drying), is set forth in Table 3.
The release liner was peeled away from the disc laminate. […] The skin/adhesive/backing laminate was clamped between the donor and receiver chambers of the diffusion cell with the skin side facing the receiver solution. […] All cells and receiver solution were maintained at 32° C. for the 24-hour duration of the study.

| Structure (SMILES) | pH of 0.1 M aqueous sol'n [1] | pKa [1] | other results |
| --- | --- | --- | --- |
| Cc1cccnc1C [2,3-dimethylpyridine] | 9.79 | – | – |
| NCCCCN [1,4-butanediamine] | 11.90 | – | – |
| NC1CCCCC1 [cyclohexylamine] | 11.82 | – | – |
| CCN1CCCCC1 [1-ethylpiperidine] | 11.73 | 10.45 | – |
| C1CNCCN1 [piperazine] | 11.42 | – | – |
| Cc1cncc(C)c1 [3,5-dimethylpyridine] | 9.58 | – | – |
| CCCCN [n-butylamine] | 11.81 | – | – |
| COc1ccncc1 [4-methoxypyridine] | 9.79 | 6.58 | – |
| Nc1ccc(N)nc1 [2,5-diaminopyridine] | 9.74 | 6.48 | – |
| NCCc1ccccc1 [phenethylamine] | 11.42 | – | – |
| NCCN [ethylenediamine] | – | 9.93 | – |
| Cc1ccnc(C)c1 [2,4-dimethylpyridine] | 10.00 | 6.99 | – |
| COc1cccnc1 [3-methoxypyridine] | 8.89 | 4.78 | – |
| COc1ccccn1 [2-methoxypyridine] | 8.14 | – | – |
| Cc1c[nH]c(C)n1 [2,4-dimethylimidazole] | 10.68 | 8.36 | – |
| CN1CCCC1 [N-methylpyrrolidine] | 11.73 | 10.46 | – |
| c1ccc2[nH]cnc2c1 [benzitnidazole] | 9.24 | 5.48 | – |
| Cc1ccncc1 [γ-picoline] | – | 5.99 | – |
| O=C(O)Cc1ccccc1Nc1c(Cl)cccc1Cl [diclofenac, diclofenac sodium] | – | – | cumulative amount of diclofenac that permeated through the skin ([2]; N-methyl glucamine added (Formulation H, with NaOH)): 1.54 mg/cm^2; cumulative amount of diclofenac that permeated through the skin ([2]; monoethanolamine added (Formulation G, with NaOH)): 1.57 mg/cm^2; cumulative amount of diclofenac that permeated through the skin ([2]; no nitrogenous base added (Formulation E, NaOH only)): 0.90 mg/cm^2; cumulative amount of diclofenac permeated, times higher than when no nitrogenous base was present ([2]; system containing monoethanolamine vs no nitrogenous base): about 1.7 times; cumulative amount of diclofenac that permeated through the skin ([2]; triethanolamine added (Formulation F, with NaOH)): 1.08 mg/cm^2 |
| Cc1cc(C)nc(C)c1 [2,4,6-trimethylpyridine] | – | 6.69 | – |
| CC1CNC(C)CN1 (stereo not shown) [2,5-dimethylpiperazine] | 11.33 | 9.66 | – |
| CC(C)N [isopropylamine] | 11.80 | 10.60 | – |
| CC1CCCN1C (stereo not shown) [1,2-dimethylpyrrolidine] | 11.60 | 10.20 | – |
| CCCCCC(C)N (stereo not shown) [2-aminoheptane] | 11.85 | 10.70 | – |
| CC1CCCCN1C (stereo not shown) [1,2-dimethylpiperidine] | 11.61 | 10.22 | – |
| NC(N)=O [urea] | 6.55 | – | – |
| NCc1ccccc1 [benzylamine] | 11.17 | – | – |
| CC(N)c1ccccc1 (stereo not drawn) [α-methyl-benzylamine] | 11.38 | 9.75 | – |
